Tests used:
human transporter URAT1 = target: T1, human transporter URAT1 (Homo sapiens, UniProt Q96S37); experiment: In vitro transport assay 2, URAT1; type: cell-based; settings: 20 μM [14C]-uric acid
T1 construct: expressed in transfected cells; host or cells: MDCK-II
T1 sequence (Q96S37 1-553): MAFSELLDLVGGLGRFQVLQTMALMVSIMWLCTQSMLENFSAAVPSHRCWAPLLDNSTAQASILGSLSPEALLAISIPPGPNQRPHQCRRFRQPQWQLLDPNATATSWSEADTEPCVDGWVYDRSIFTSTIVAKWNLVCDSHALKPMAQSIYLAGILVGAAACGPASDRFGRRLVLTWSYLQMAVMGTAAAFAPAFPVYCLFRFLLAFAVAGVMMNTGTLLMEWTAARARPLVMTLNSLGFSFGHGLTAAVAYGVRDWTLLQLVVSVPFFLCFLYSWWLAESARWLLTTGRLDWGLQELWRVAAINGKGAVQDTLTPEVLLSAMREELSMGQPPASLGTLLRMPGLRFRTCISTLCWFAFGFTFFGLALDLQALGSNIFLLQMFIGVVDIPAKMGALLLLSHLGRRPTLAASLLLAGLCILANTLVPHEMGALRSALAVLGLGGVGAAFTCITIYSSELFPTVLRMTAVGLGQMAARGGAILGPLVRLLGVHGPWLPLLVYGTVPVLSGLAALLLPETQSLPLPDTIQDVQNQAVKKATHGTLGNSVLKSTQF
Method: Compound 1 was studied in the concentration range of 0.1-10 μM for its potency against transport mediated by various transporter proteins.

total alpha-synuclein = experiment: Total alpha-synuclein IHC, L61 ASYN transgenic mice, 1 month study; type: in vivo; settings: for reduction of total alpha-synuclein level in cortex compared to vehicle control: L61 ASYN transgenic mice
Method: (§1) Multiple in vivo administration studies of Compound 1 were carried out in the Line 61 (L61) mThy1-alpha-synuclein transgenic mouse model of Parkinson's disease (PD). The mThy1-alpha-synuclein transgenic mouse model overexpresses wild-type human ASYN under the Thy-1 promoter (commonly referred to as Line 61 transgenic mice; Rockenstein et al., 2002). This transgenic mouse develops extensive accumulation of alpha-synuclein (ASYN) in areas relevant to PD (Rockenstein et al., 2002; Chesselet et al., 2012; Games et al., 2013), neurodegeneration including dopaminergic neurodegeneration, reduced dopamine (DA) and TH loss in the striatum (Masliah et al., 2000; Lam et al., 2011), and motor deficits (Fleming et al., 2004). Male transgenic and non-transgenic littermates (3-3.5 mo) were used for all in vivo studies presented here.
Alpha-synuclein (ASYN) is a neuronal protein whose dysregulation has been implicated in the pathogenesis of PD. The effects of Compound 1 on alpha-synuclein aggregation were assessed in both L61 ASYN transgenic and non-transgenic mice in a 1 month administration study. L61 ASYN transgenic mice (36 total mice, n=8-11 mice per treatment group) were injected (i.p.) daily with 1, 5, or 10 mg/kg of Compound 1 or a vehicle control (5% DMSO+20% Cremphor EL+0.9% normal saline) for 1 month. Non-transgenic mice (18 total mice, n=8-11 mice per treatment group) were used as a control and were injected daily (i.p.) with 10 mg/kg of Compound 1 or a vehicle control (5% DMSO+20% Cremphor EL+0.9% normal saline) per day for 1 month. At the end of one month, the mice were sacrificed, and immunohistochemical (IHC) detection of total alpha-synuclein deposits, insoluble alpha-synuclein deposits (PK+resistant), microtubule-associated protein 1A/1B-light chain 3 (LC3), and monomeric alpha-synuclein levels were assessed in the harvested brain tissues.
The quantification and IHC staining of total alpha-synuclein were performed using known techniques (Rockenstein et al., J Neurosci Res. 2002, 68(5):568-78; Tanji et al., Acta Neuropathol. 2010, 120, 145-154; Nuber et al., Brain. 2013 February; 136(Pt 2):412-32).

[1] = target: T2, human transporter OATP1B3 (Homo sapiens, UniProt Q9NPD5); experiment: In vitro ion transport assay 1, OATP1B3; type: cell-based; settings: probe substrate 2 μM [3H]-CCK-8
T2 construct: expressed in transfected cells; host or cells: MDCK-II
T2 sequence (Q9NPD5 1-702): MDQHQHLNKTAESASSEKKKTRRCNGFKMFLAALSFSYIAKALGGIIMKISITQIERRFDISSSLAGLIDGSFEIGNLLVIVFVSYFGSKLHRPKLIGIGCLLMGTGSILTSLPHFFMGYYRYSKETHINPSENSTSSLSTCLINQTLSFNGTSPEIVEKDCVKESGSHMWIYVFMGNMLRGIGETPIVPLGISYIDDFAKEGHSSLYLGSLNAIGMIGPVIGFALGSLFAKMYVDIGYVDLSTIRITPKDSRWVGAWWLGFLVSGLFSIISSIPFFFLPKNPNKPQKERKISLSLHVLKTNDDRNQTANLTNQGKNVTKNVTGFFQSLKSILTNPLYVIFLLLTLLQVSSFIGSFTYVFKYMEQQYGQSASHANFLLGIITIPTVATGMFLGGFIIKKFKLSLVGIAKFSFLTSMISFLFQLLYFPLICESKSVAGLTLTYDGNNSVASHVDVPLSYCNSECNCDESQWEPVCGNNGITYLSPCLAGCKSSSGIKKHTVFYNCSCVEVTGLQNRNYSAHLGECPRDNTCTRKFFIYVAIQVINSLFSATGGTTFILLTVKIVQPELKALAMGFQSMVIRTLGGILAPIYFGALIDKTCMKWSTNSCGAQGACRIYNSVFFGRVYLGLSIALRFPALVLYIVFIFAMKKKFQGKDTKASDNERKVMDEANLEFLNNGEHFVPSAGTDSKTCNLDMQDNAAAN
Method: Compound 1 was studied in the concentration range of 0.1-100 μM for its potency against transport mediated by various transporter proteins. [table]

L61 ASYN transgenic mice = experiment: Grip strength, L61 ASYN transgenic mice, 3 month study; type: in vivo; settings: 5 mg/kg and 10 mg/kg i.p. daily, after 70 days of treatment
Method: The effects of Compound 1 on the motor performance deficits (grip strength) and a marker of neuroinflammation (Translocator Protein (18 kDa)) were assessed in both L61 ASYN transgenic and non-transgenic mice in a 3 month administration study.
Briefly, Compound 1 was injected into L61 ASYN transgenic mice and non-transgenic control mice (i.p., once daily) at doses of 5 and 10 mg/kg for 3 months (79 total mice, n=14-17 mice per treatment group). The vehicle control consisted of a solution containing 5% DMSO+20% Cremphor EL+0.9% normal saline. The baseline grip strength of mice was evaluated prior to starting treatments for the 3 month study, and then re-evaluated following 70 days of treatment with vehicle or Compound 1 (5 or 10 mg/kg, i.p. injection daily).

[2] = system: microtubule-associated protein 1A/1B-light chain 3 (LC3); experiment: LC3 immunolabeling, L61 ASYN transgenic mice, 1 month study; type: in vivo; settings: 1, 5 or 10 mg/kg per day i.p.
Method: as §1, with “Male transgenic and non-transgenic littermates (3-3.5 mo) were used for all in vivo studies presented here.” left out
Alpha-synuclein (ASYN) is a neuronal protein whose dysregulation has been implicated in the pathogenesis of PD. The effects of Compound 1 on alpha-synuclein aggregation were assessed in both L61 ASYN transgenic and non-transgenic mice in a 1 month administration study. […] At the end of one month, the mice were sacrificed, and immunohistochemical (IHC) detection of total alpha-synuclein deposits, insoluble alpha-synuclein deposits (PK+resistant), microtubule-associated protein 1A/1B-light chain 3 (LC3), and monomeric alpha-synuclein levels were assessed in the harvested brain tissues.

IC50 (human transporter URAT1): > 10 µM
IC50 [1]: 51.2 µM
SMILES: O=S(=O)(c1ccc(-n2cn[nH]c2=S)cc1)c1ccc(Cl)c(C(F)(F)F)c1 [Compound 1, 4-(4-((4-chloro-3-(trifluoromethyl)phenyl)sulfonyl)phenyl)-2,4-dihydro-3H-1,2,4-triazole-3-thione]
reduction of total alpha-synuclein level in cortex compared to vehicle control (total alpha-synuclein; 1 mg/kg daily i.p.): 13%
reduction of total alpha-synuclein level in cortex compared to vehicle control (total alpha-synuclein; 5 mg/kg daily i.p.): 32%
reduction of total alpha-synuclein level in cortex compared to vehicle control (total alpha-synuclein; 10 mg/kg daily i.p.): 38%
total ASYN in the neuropil of cortex, hippocampus and striatum vs vehicle (total alpha-synuclein; 1, 5 or 10 mg/kg per day i.p., statistically significant): reduced total ASYN
grip strength vs vehicle-treated transgenic mice (L61 ASYN transgenic mice): higher grip strengths
levels of LC3 immunolabeling in cortex and striatum [2]: increased
